The supplement of paper PMC10307832

Columns and labels:
Assay in all cases: relative viability (nuclei count vs DMSO), 5 days (fraction); higher = more cells survive
BAM7 + Decitabine = compound: CCOC1=CC=CC=C1N=NC2=C(NN(C2=O)C3=NC(=CS3)C4=CC=CC=C4)C [BAM7] + Nc1ncn([C@H]2C[C@H](O)[C@@H](CO)O2)c(=O)n1 [Decitabine] (partner 2 µM)
In short: (§1)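 Relative viability is defined as nuclei in treated wells over nuclei in vehicle wells. Duplicate plates were run and medians reported. Lung cancer cell lines in 1536-well plates were dosed by pin tool one day after seeding, with one drug or with a fixed anchor-drug dose plus five library-drug doses (not always all listed) in √10 steps, and nuclei were counted after 5 days.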

BAM7 + Crizotinib = compound: CCOC1=CC=CC=C1N=NC2=C(NN(C2=O)C3=NC(=CS3)C4=CC=CC=C4)C [BAM7] + C[C@@H](Oc1cc(-c2cnn(C3CCNCC3)c2)cnc1N)c1c(Cl)ccc(F)c1Cl [Crizotinib] (partner 1 µM)
In short: as §1

BAM7 + OSI-027 = compound: CCOC1=CC=CC=C1N=NC2=C(NN(C2=O)C3=NC(=CS3)C4=CC=CC=C4)C [BAM7] + COc1cccc2cc(-c3nc([C@H]4CC[C@H](C(=O)O)CC4)n4ncnc(N)c34)[nH]c12 [OSI-027] (partner 0.5 µM)
In short: as §1

[1] = compound: CCn1c(-c2nonc2N)nc2c(C#CC(C)(C)O)ncc(OC[C@H]3CCCNC3)c21 + COc1cccc2cc(-c3nc([C@H]4CC[C@H](C(=O)O)CC4)n4ncnc(N)c34)[nH]c12 [OSI-027] (partner 0.5 µM)
In short: as §1

Row | Cell Line | relative viability (BAM7 + Decitabine; first compound 0.5 µM) | relative viability (BAM7 + Decitabine; first compound 5 µM) | relative viability (BAM7 + Decitabine; first compound 15.81 µM) | relative viability (BAM7 + Decitabine; first compound 50 µM) | relative viability (BAM7 + Crizotinib; first compound 0.5 µM) | relative viability (BAM7 + Crizotinib; first compound 5 µM) | relative viability (BAM7 + Crizotinib; first compound 15.81 µM) | relative viability (BAM7 + Crizotinib; first compound 50 µM) | relative viability (BAM7 + OSI-027; first compound 0.5 µM) | relative viability (BAM7 + OSI-027; first compound 5 µM) | relative viability (BAM7 + OSI-027; first compound 15.81 µM) | relative viability (BAM7 + OSI-027; first compound 50 µM) | relative viability ([1]; first compound 0.01 µM) | relative viability ([1]; first compound 0.03162 µM) | relative viability ([1]; first compound 0.1 µM) | relative viability ([1]; first compound 0.3162 µM) | relative viability ([1]; first compound 1 µM)
1 | RERF-LC-KJ | 0.617 | 0.615 | 0.398 | 0.48 | 0.834 | 0.786 | 0.78 | 0.793 | 0.472 | 0.422 | 0.334 | 0.404 | 0.497 | 0.564 | 0.526 | 0.446 | 0.395
2 | LXF-289 | 0.341 | 0.339 | 0.353 | 0.407 | 0.924 | 0.876 | 0.773 | 0.787 | 0.923 | 0.909 | 0.761 | 0.802 | 0.778 | 0.779 | 0.808 | 0.759 | 0.804
3 | PC-14 | 0.243 | 0.183 | 0.208 | 0.208 | 1.07 | 0.99 | 0.805 | 0.859 | 0.872 | 0.898 | 0.764 | 0.926 | 0.706 | 0.968 | 0.797 | 0.499 | 0.613
4 | NCI-H650 | 0.297 | 0.323 | 0.315 | 0.448 | 0.649 | 0.764 | 0.656 | 0.69 | 0.505 | 0.591 | 0.493 | 0.589 | 0.412 | 0.39 | 0.495 | 0.463 | 0.441
5 | NCI-H522 | 0.729 | 0.638 | 0.687 | 0.671 | – | – | – | – | 0.976 | 0.744 | 0.687 | 0.831 | 0.673 | 0.691 | 0.741 | 0.634 | 0.748
6 | NCI-H1299 | – | – | – | – | 0.98 | 1.01 | 1.01 | 0.946 | – | – | – | – | – | – | – | – | –
7 | NCI-H1648 | 0.395 | 0.642 | 0.432 | 0.404 | – | – | – | – | 0.275 | 0.282 | – | 0.283 | – | 0.271 | 0.278 | 0.265 | 0.246
8 | NCI-H2342 | 0.821 | 0.669 | 0.594 | 0.551 | – | – | – | – | 0.584 | 0.587 | 0.604 | 0.566 | 0.598 | 0.617 | 0.517 | 0.546 | 0.594
9 | SW 900 | – | 0.465 | – | 0.494 | – | – | – | – | 0.194 | 0.539 | 0.545 | 0.609 | 0.452 | 0.321 | 0.507 | 0.435 | 0.562
10 | NCI-H1395 | 0.729 | 0.875 | 0.707 | 0.722 | – | – | – | – | 0.684 | 0.67 | 0.704 | 0.97 | 0.496 | 0.597 | 0.552 | 0.556 | 0.555
11 | A549 | 0.288 | 0.29 | 0.251 | 0.288 | 0.85 | 0.861 | 0.745 | 0.781 | – | – | – | – | – | – | – | – | –
12 | NCI-H1563 | – | – | – | – | 0.974 | 0.942 | 0.889 | 0.841 | 0.729 | 0.721 | 0.763 | 0.791 | 0.73 | 0.783 | 0.686 | 0.688 | 0.666
